Our source for the IC50 values is patent US12544357B2, “Compositions and methods for the treatment of Plasmodium falciparum malaria” (priority 2021, dated 2026).

A value given as a limit tells only on which side of the number the result lay.

In the assay the test system is P. falciparum strain 3D7 parasites. The assay is described as follows: parasite killing assay, P. falciparum 3D7, pLDH readout. The class given is cell-based, Plasmodium falciparum. To be noted: ring stage, 48 hours, read-out: IC50. How it is done:
P. falciparum strain 3D7 parasites were synchronized to the ring stage and incubated with a dilution series of compound or media control for 48 hours followed by quantification of parasitemia by Plasmodium lactate dehydrogenase assay (pLDH) assay.
P. falciparum strain 3D7 (Panels A and C) or 3D7 PfGARP KO (Panel B) parasites were synchronized to the ring stage and incubated with a dilution series of compound or media control for 48 hours followed by quantification of parasitemia by pLDH assay.
A limited structure-activity relationship (SAR) study was then conducted, evaluating 48 analog compounds having the same backbone (black in FIG. 3 inset and FIG. 4), but varying R groups (red) using P. falciparum strain 3D7 and 3D7 PfGARP KO parasites. For the SAR study, 3D7 or 3D7 PfGARP KO parasites were synchronized to the ring stage and incubated with a dilution series of compounds or media control for 48 hours followed by quantification of parasitemia by Plasmodium lactate dehydrogenase assay (pLDH) assay.^30 Each dilution was evaluated in quadruplicate. In all experiments, DMSO concentration was <0.1%.
The small molecule compounds shown in FIG. 4 were tested for their abilities to kill P. falciparum strain 3D7 parasites.
For the compound `COc1ccc(N(C(C)C(=O)Nc2ccc3c(c2)OCCO3)S(C)(=O)=O)cc1` (centres unmarked) [ID #7123771], the IC50 is above 10000 µM.

Regarding `CNC(=O)CN(c1ccc2c(c1)OCCO2)S(C)(=O)=O` [ID #7626390], the IC50 was above 10000 µM.

In the case of `CS(=O)(=O)N(CC(=O)N1CCCCCC1)c1ccc2c(c1)OCCO2` [ID #7627706], the IC50 turned out to be 143 µM.

For the compound `CS(=O)(=O)N(CC(=O)N1CCCC1)c1ccc2c(c1)OCCO2` [ID #7639273], the IC50 was above 10000 µM.

Regarding `CS(=O)(=O)N(CC(=O)N1CCOCC1)c1ccc2c(c1)OCCO2` [ID #7641147], the IC50 was determined as 355 µM.

For the compound `CC(C(=O)N1CCN(C)CC1)N(c1ccc2c(c1)OCCO2)S(C)(=O)=O` (centres unmarked) [ID #9072406], the IC50 was found to be 412 µM.

For `Cc1ccccc1NC(=O)C(C)N(c1ccc2c(c1)OCCO2)S(C)(=O)=O` (centres unmarked) [ID #9072806], the IC50 was determined as 85.3 µM.

For the compound `CC(C(=O)NC1CCCC1)N(c1ccc2c(c1)OCCO2)S(C)(=O)=O` (centres unmarked) [ID #9074663], the half-inhibitory concentration (IC50) stood at 235 µM.

Consider `CC(C(=O)N1CCOCC1)N(c1ccc2c(c1)OCCO2)S(C)(=O)=O` (centres unmarked) [ID #9075078], for which the IC50 is above 10000 µM.

Take `CC(C(N)=O)N(c1ccc2c(c1)OCCO2)S(C)(=O)=O` (centres unmarked) [ID #9076661]: the IC50 came out at 132 µM.

With `CCOc1ccccc1NC(=O)C(C)N(c1ccc2c(c1)OCCO2)S(C)(=O)=O` (centres unmarked) [ID #9077487], the IC50 turned out to be 49.6 µM.

In the case of `CC(C(=O)N1CCCC1)N(c1ccc2c(c1)OCCO2)S(C)(=O)=O` (centres unmarked) [ID #9080993], the concentration for half-maximal inhibition (IC50) was above 10000 µM.

Turning to `CC(C(=O)N1CCCCC1)N(c1ccc2c(c1)OCCO2)S(C)(=O)=O` (centres unmarked) [ID #9082855], the half-maximal inhibitory concentration (IC50) stood at 70.3 µM.

In the case of `CC(C(=O)N(C)C)N(c1ccc2c(c1)OCCO2)S(C)(=O)=O` (centres unmarked) [ID #9082916], the half-inhibitory concentration (IC50) turned out to be 509 µM.

`CC(C(=O)Nc1ccccc1)N(c1ccc2c(c1)OCCO2)S(C)(=O)=O` (centres unmarked) [ID #9083000]: the IC50 was determined as 182 µM.

For the compound `Cc1cccc(NC(=O)C(C)N(c2ccc3c(c2)OCCO3)S(C)(=O)=O)c1` (centres unmarked) [ID #9083036], the IC50 came out at 80.8 µM.

For `CC(C(=O)NC1CC1)N(c1ccc2c(c1)OCCO2)S(C)(=O)=O` (centres unmarked) [ID #9083268], the IC50 stood at 387 µM.

Turning to `CC(C(=O)NC1CCCCC1)N(c1ccc2c(c1)OCCO2)S(C)(=O)=O` (centres unmarked) [ID #9083607], the half-maximal inhibitory concentration (IC50) was 160 µM.

Regarding `CC(C(=O)NC1CCCCCC1)N(c1ccc2c(c1)OCCO2)S(C)(=O)=O` (centres unmarked) [ID #9083885], the 50% inhibitory concentration (IC50) turned out to be 57.2 µM.

Take `CC1CCN(C(=O)C(C)N(c2ccc3c(c2)OCCO3)S(C)(=O)=O)CC1` (centres unmarked) [ID #9084012]: the IC50 came to 80.2 µM.

Consider `COc1ccccc1NC(=O)C(C)N(c1ccc2c(c1)OCCO2)S(C)(=O)=O` (centres unmarked) [ID #9084682], for which the IC50 was above 10000 µM.

Regarding `Cc1cccc(C)c1NC(=O)C(C)N(c1ccc2c(c1)OCCO2)S(C)(=O)=O` (centres unmarked) [ID #9084931], the IC50 was determined as 68.5 µM.

For `CC(C(=O)NC1CC2CCC1C2)N(c1ccc2c(c1)OCCO2)S(C)(=O)=O` (centres unmarked) [ID #9085023], the IC50 worked out at 46.8 µM.

`COc1cccc(NC(=O)C(C)N(c2ccc3c(c2)OCCO3)S(C)(=O)=O)c1` (centres unmarked) [ID #9085101]: the half-inhibitory concentration (IC50) was above 10000 µM.

Turning to `CN(C)CCNC(=O)CN(c1ccc2c(c1)OCCO2)S(C)(=O)=O` [ID #9134158], the half-inhibitory concentration (IC50) is 134 µM.

With `CS(=O)(=O)N(CC(=O)NCCCN1CCCC1)c1ccc2c(c1)OCCO2` [ID #9146302], the concentration for half-maximal inhibition (IC50) came out at 124 µM.
